Results on 4 compounds are retold here after patent publication US8251060B2, “Device and method for delivering an aerosol drug” (priority 2006, dated 2012).

The conditions of data set [1]: aerosol formed from the polyol; cited from earlier work.
A short description of data set [2]: Mass transfer of polyol-drug formulations from substrate in device with puffing equipment; effluent collected on Cambridge pads, weighed, nicotine by GC/MS. To be noted: after heating in device with PEG.

`OCC(O)CO` [Glycerin]: the MMAD entry in data set [1] is “less than 1.5 micrometers”.
In the case of `CN1CCCC1c1cccnc1.O=C(O)C(O)C(O)C(=O)O` (stereo not shown) [NIC B, nicotine bitartrate], the “decomposition products from nicotine in the chromatograms (GC/MS of extracts of collected effluent)” value in data set [2] is recorded as “no measurable decomposition products”.
Still for that read-out and setting: the value for `CN1CCCC1c1cccnc1` (stereo not shown) [NIC, nicotine] was “no measurable decomposition products”.
For `CC(O)CO` (stereo not shown) [Propylene Glycol (PEG), Propylene Glycol], the MMAD entry in data set [1] is given as “less than 0.9 micrometers”.
